From patent US20190343749A1, “PROTECTANTS” (Lincoln Manufacturing Inc., priority 2018, published 2019)

Test system: mixture of bacteria
Experiment: CTFA Preservative Challenge Test on a shampoo
Assay type: cell-based
Conditions: for Mixed Bacteria Day 7 Count / Mixed Bacteria Day 14 Count: shampoo containing the sample, initial count 4×10^6 cfu/mL; for kill reduction: shampoo, mixed bacteria
Method: The CTFA Preservative Challenge Test was performed on a shampoo containing the samples below against a mixture of bacteria having an initial count of 4×10^6 cfu/mL. The shampoos inoculated with bacteria were allowed to stand for 7 or 14 days. The samples were evaluated for surviving organisms on day 7 or day 14 for bacteria-innoculated shampoos.
E. Kull et al., “Mixtures of Quaternary Ammonium Compounds and Long-chain Fatty Acids as Antifungal Agents”, Applied Microbiology, 9:538-541 (1961). The synergism value (QA/Qa+QB/Qb) was determined. […] Qb is the concentration of pircotine olamine alone (in percent by weight) required to yield 100% retardation of the bacteria. When the value of (QA/Qa +QB/Qb) is less than one, the mixture is synergistic. Values for (QA/Qa+QB/Qb) of 1 and greater represent an additive effect and an antagonistic effect, respectively.

## Cc1cc(CC(C)CC(C)(C)C)n(O)c(=O)c1.NCCO (centres unmarked) [0.1% Piroctone olamine, piroctone olamine]
Percent by weight in shampoo, plate count <10 cfu/g after 14 days
  concentration alone required to yield 100% retardation of the bacteria (Qa, Qb): > 0.1%
Day 7
  Mixed Bacteria Day 7 Count: 1.2 × 10^5 cfu/mL
  kill reduction: (<97% kill reduction)
Day 14
  Mixed Bacteria Day 14 Count: 1.3 × 10^5 cfu/mL
  kill reduction: (<97% kill reduction)

## CCCCCCCCCCCCCCCC[n+]1ccccc1 [1% cetylpyridinium chloride, cetylpyridinium chloride]
Day 14
  Mixed Bacteria Day 14 Count: 7 × 10^3 cfu/mL

## COc1ccc(C(=O)[O-])cc1.[Na+] [1% sodium p-anisate, sodium p-anisate]
Day 7
  Mixed Bacteria Day 7 Count: 2.3 × 10^4 cfu/mL
  kill reduction: (<99% kill reduction)
